US7655395B2, “Isolation and use of ryanodine receptors” (E.I. du Pont de Nemours and Company, priority 2002, dated 2010)

Experiments:
[1] = tested on: native cockroach ryanodine receptors (in embryonic neuronal cells); assay: Calcium release assay, calcium imaging of embryonic cockroach neuronal cells (Fluo-4); format: cell-based, Periplaneta americana; details: for Calcium Release (P. americana): Table 6, result in words
Description: Embryonic neuronal cultures of the American cockroach Periplaneta americana were established, with minor modifications, following the method of Beadle and Lees (1988) (in Cell Culture Approaches to Invertebrate Neuroscience, Academic Press, New York, pp 123-127). Briefly, 26-27-day old oothecae were collected, surface-sterilized and cut open along a line one-third of the distance below the dorsal midline. The heads were removed and placed in Schneider's Drosophila medium (Invitrogen Life Technologies™, Carlsbad, Calif.). Using fine forceps 40 brains were individually removed and placed in a small glass vial containing 700 μl of ‘5+4’ medium (‘5+4’ medium contained 5 parts Schneider's Drosophila medium plus 4 parts roach Basal Medium Eagle, with Earle's salts (BME, Sigma™, St. Louis, Mo.). Roach BME (with Earle's salts) contained 5 parts Hepes (1 M), 1 part penicillin/streptomycin and 44 parts BME (with Earle's salts). ‘5+4’ medium was made fresh and sterile filtered (0.2 μm filter) just prior to use). The brains were dissociated by sequential trituration as follows: 1) brains were passed through a standard Pasteur pipette 10 times; 2) the resulting tissue suspension was passed an additional 5 times through a Pasteur pipet with tip flamed to about half of its original diameter; 3) a final 5 passes were performed using a Pasteur pipet with tip flamed to slightly less than half of its original diameter. A repeat pipettor was used to dispense a 5 μl volume of the resulting suspension into the center of each well of a 96-well, glass-bottom plate previously coated with poly-L-lysine (0.2 mg/ml solution). Cells attached to the bottom of the wells during a 50 min incubation at 27-29° C. 150 ul of a 1:1 mixture of Leibovitz's L-15 medium and Yunker's modified Grace's medium was added, and plates were maintained in a humid incubator at 27-29° C. until use. After cells were allowed to attach wells were filled with a 1:1 mixture of Leibovitz's L-15 medium and Yunker's modified Grace's medium (Leibovitz's L-15 and Grace's medium were obtained from Invitrogen Life Technologies™, Carlsbad, Calif. and Yunker's modified Grace's medium was made with Grace's medium modified by addition of 5 mg L-methionine, 10 mg L-alanine, 182 mg MgCl2.6H20, 1 g Albumin Fraction V, 7 ml Fetal bovine serum, 10 ml Chick embryo extract, 2 ml Penicillin/Streptomycin, and 2 mg 20-hydroxyecdysone (prepared in ethanol prior to addition) to a final volume of 100 ml and sterile filtered (0.2 μm filter)). Cells were maintained in a high humidity incubator at 29° C. until testing.
The calcium imaging and acquisition protocols using roach neuronal cells is as follows:
Cells were rinsed in standard physiological saline having the following composition (mM): NaCl 190; CaCl2 9; KCl 3.1; probenicid 1; Tris buffer 10; pH 7.2. Cells were then bathed in standard physiological saline containing the calcium sensitive fluoroprobe Fluo-4 AM (2 μM) and Pluronic F127 (0.002%) for 45 min. Cells were then rinsed in standard physiological saline for at least 15 min prior to testing. Within the hour prior to testing, standard physiological saline was replaced with standard physiological saline containing the organic cation channel blocker pimozide (10 μM), to inhibit influx of external calcium through voltage-gated calcium channels. The 96-well plate was placed on a Prior™ motorized stage mounted onto a Nikon Diaphot microscope and imaged using a 20× Fluor objective (NA 0.75). Individual wells from the 96-well plate were sequentially excited with light at 495 nm, and the emitted fluorescence at 530 nm was detected using a Hamamatsu ORCA ER digital camera with 2 pixel binning (image size 672×512 pixels).
Acquisition control, image processing and image analysis were conducted using Universal Imaging Corporation's MetaMorph™ imaging software (Universal Imaging, West Chester, Pa.). A series of 3 “control” images were acquired for each well. […]

[2] = tested on: control cells without DNA / wild-type Sf9 cells; assay: Calcium response in control Sf9 cells (without DNA, lipid only, non-transfected, wild type); format: cell-based, Spodoptera frugiperda; details: Compound 16 10 and 100 nM
Description: (§1) Several drops of a suspension of recombinant Spodoptera frugiperda cell line, Sf9, transiently expressing insect ryanodine receptors were placed on a poly-L-lysine-coated coverslip and allowed to attach. Cells were then rinsed in physiological saline having the following composition (mM): NaCl 130; KCl 5.4; MgCl2 1.2; CaCl2 1.0; NaHCO3 4.2; NaH2P04 7.3; Glucose 10; Sucrose 63; MES 20; pH 6.3. Cells were then bathed in physiological saline containing the calcium sensitive fluoroprobe, Fura-2 AM (2 μM), and Pluronic F127 (0.002%) for 30 min. Cells were rinsed in standard physiological saline for at least 15 min prior to testing. Testing was conducted in standard physiological saline, as the cell lines are devoid of functional voltage-gated calcium channels.
Imaging studies were conducted using a Nikon Diaphot microscope with a 40× oil immersion objective (NA 1.3) Image acquisition and processing was performed using the MetaFluor™ imaging system from Universal Imaging Corporation (West Chester, Pa.) Calcium calibration was carried out using the Grynkiewicz equation with a dissociation constant (Kd) of 145 nM for Fura-2 (Grynkiewicz et al., 1985). Cell-attached coverslips were placed in a sealed chamber with physiological saline continuously perfused across the cells using a peristaltic pump. Test compounds solubilized in physiological saline were applied by switching the perfusate source.
(§2) For studies involving the stable recombinant Spodoptera frugiperda cell line, Sf9, (other cell lines could also be used such as Sf21, S2, etc) expressing an insect ryanodine receptor from Drosophila melanogaster, or Heliothis virescens (alternatively receptors from other species such as Myzus persicae, Peregrinus maidis, Aphis gossypii, etc) were grown in T75 (or other appropriate sized) flasks in supplemented Grace's insect medium. Cells were maintained in an incubator at 22° C. until testing. Cells were suspension-loaded with the calcium sensitive fluoroprobe, Fura-2 AM (1-2 μM) and Pluronic F127 (0.002%) in culture medium for 30 minutes under agitation. Cells were then centrifuged and the pellet resuspended in physiological saline having the following composition (mM): NaCl 130; KCl 5.4; MgCl2 1.2; CaCl2 1.0; NaHCO3 4.2; NaH2P04 7.3; Glucose 10; Sucrose 63; MES 20; pH 6.3 at approximately 150,000-200,000 cells per well (96-well plate). After a 30 minute equilibration period the cell plate was tested using a Molecular Devices' FlexStation™ system with dual wavelength excitation (340 and 380 nm) and fluorescence emission measured at 510 nm. Test and control samples were added using integrated fluidics and the intracellular calcium monitored over a 2 minute period.

[3] = target: T1, recombinant Drosophila melanogaster ryanodine receptors (expressed in Sf9 cells) (Drosophila melanogaster, UniProt Q24498); format: cell-based; details: for Calcium Release Threshold (nM) D. melanogaster: receptor expressed in Sf9 cells; for Calcium Release (D. melanogaster): Table 6, result in words, receptor transiently or stably expressed in Sf9 cells
T1 construct: expressed in transfected cells
Method: The Spodoptera frugiperda cell line Sf9 used for transfection studies, was maintained in Sf-900 II SFM medium (Invitrogen Life Technologies™, Carlsbad, Calif.) in T-75 flasks incubated at 27° C. It is understood that those skilled in the art might choose alternative cell types such as the Spodoptera frugiperda cell line Sf21 or the Drosophila cell line S2. For the purpose of general handling and propagation, cells were suspended through scraping or agitation and a volume of cell suspension was added to each well of a poly-L-lysine coated 96-well, glass-bottom plate so as to provide 70-80% confluence. Cells were maintained in an incubator at 27° C. until testing.
SF900-II media was used to bring the final volume in the dish to 2 ml and the cells were incubated at 27 degrees C. for 21 h. Following the incubation the media was aspirated from the dish and replaced with 1 ml of SF900-II media pre-warmed to 27 degrees C.
The transient transfection was carried out following an InsectSelect BSD System manual (Invitrogen Life Technologies™, Carlsbad, Calif.). […] The transfection was accomplished by adding the transfection solution drop-wise to the dish and incubating 4 h at room temperature with gentle rocking. […]
as §1
Cell-attached coverslips were placed in a sealed chamber with physiological saline continuously perfused across the cells using a peristaltic pump. Test compounds solubilized in physiological saline were applied by switching the perfusate source.
as §2

[4] = target: native cockroach ryanodine receptors (roach femoral muscle membranes) (Periplaneta americana, UniProt A0ABQ8T696); assay: Radioligand displacement ([3H]-GN analog Cpd 1) on roach femoral muscle membranes; format: binding; details: for IC50: displacement of [3H]-Cpd 1, roach muscle membranes, 60 min at 32° C., read-out: Displacement IC50 (nM) P. americana; for Radioligand Displacement (P. americana): Table 6, result in words
Chain of native cockroach ryanodine receptors (roach femoral muscle membranes) (A0ABQ8T696 entry or part of it): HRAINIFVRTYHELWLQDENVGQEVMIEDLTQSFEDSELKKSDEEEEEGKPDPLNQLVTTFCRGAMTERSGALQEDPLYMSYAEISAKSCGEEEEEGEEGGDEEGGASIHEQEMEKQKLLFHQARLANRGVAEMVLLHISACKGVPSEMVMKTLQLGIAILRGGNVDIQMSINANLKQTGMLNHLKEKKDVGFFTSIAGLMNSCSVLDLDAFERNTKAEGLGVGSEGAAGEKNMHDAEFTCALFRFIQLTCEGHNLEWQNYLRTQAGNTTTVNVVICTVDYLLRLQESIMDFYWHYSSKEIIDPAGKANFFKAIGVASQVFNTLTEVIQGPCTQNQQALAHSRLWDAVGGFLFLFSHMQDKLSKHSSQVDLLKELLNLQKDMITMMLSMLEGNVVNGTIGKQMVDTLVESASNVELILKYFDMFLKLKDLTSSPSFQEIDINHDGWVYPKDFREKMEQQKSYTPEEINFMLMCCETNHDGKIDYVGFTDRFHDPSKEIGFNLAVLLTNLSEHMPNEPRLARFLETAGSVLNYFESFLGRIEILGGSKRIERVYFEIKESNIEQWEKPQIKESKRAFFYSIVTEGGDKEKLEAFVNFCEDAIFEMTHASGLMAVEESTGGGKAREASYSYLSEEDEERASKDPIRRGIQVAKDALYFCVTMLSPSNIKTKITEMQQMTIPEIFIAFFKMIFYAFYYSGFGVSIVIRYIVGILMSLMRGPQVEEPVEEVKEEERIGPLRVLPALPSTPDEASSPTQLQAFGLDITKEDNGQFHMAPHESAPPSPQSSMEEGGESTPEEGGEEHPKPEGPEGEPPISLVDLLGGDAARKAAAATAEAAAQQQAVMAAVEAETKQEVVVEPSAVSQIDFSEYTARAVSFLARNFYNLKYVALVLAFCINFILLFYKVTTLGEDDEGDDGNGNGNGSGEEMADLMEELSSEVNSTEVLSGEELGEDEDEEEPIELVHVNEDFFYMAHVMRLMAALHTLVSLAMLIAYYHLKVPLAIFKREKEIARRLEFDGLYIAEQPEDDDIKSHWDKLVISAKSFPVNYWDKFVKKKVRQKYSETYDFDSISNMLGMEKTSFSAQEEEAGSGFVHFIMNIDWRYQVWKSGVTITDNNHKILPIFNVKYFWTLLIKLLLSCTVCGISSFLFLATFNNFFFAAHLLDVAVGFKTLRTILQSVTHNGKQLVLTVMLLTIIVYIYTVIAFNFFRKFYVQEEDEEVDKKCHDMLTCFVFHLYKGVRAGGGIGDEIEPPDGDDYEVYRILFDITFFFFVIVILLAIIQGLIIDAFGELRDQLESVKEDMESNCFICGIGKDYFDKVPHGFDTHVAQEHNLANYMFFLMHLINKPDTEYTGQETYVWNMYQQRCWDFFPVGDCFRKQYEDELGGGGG
Method: Binding to Roach Femoral Muscle Membranes:
Assays were carried out in triplicate.

Compound	Calcium Release Threshold (nM) P. americana [1] [nM]	IC50 [4] [nM]	further results
Cc1cc(Cl)cc(C(=O)NC(C)C)c1NC(=O)c1cc(Cl)nn1-c1ncccc1Cl [Cpd 16]	<300	< 300	calcium response in control cells without DNA [2]: No significant calcium responses; calcium response ([3]; Compound 16 10 and 100 nM, Sf9 transiently expressing D. melanogaster ryanodine receptor, 96 hr post-transfection, FIG. 3): calcium responses elicited; Calcium Release Threshold (nM) D. melanogaster [3]: <300 nM
CNC(=O)c1cc(Cl)cc(C)c1NC(=O)c1cc(C(F)(F)F)nn1-c1ncccc1Cl [Cpd 11]	<300	< 300	Calcium Release Threshold (nM) D. melanogaster [3]: <300 nM
Cc1cccc(C(=O)NC(C)C)c1NC(=O)c1cc(C(F)(F)F)nn1-c1ccccc1Cl [Cpd 2]	<300	< 300	Calcium Release Threshold (nM) D. melanogaster [3]: <300 nM
CNC(=O)c1cccc(C)c1NC(=O)c1cc(C(F)(F)F)nn1-c1ncccc1Cl [Cpd 6]	<300	< 300	–
Cc1cc(Br)cc(C(=O)NC(C)C)c1NC(=O)c1cc(C(F)(F)F)nn1-c1ncccc1Cl [Cpd 9]	<300	< 300	–
Cc1cccc(C(=O)NC(C)C)c1NC(=O)c1cc(Br)nn1-c1ncccc1Cl [Cpd 7]	<300	< 300	–
CNC(=O)c1cc(Cl)cc(C)c1NC(=O)c1cc(Cl)nn1-c1ncccc1Cl [Cpd 17]	<300	< 300	–
Cc1cc(Br)cc(C(=O)NC(C)C)c1NC(=O)c1cc(Br)nn1-c1ncccc1Cl [Cpd 12]	<300	< 300	–
CNC(=O)c1cc(Br)cc(C)c1NC(=O)c1cc(C(F)(F)F)nn1-c1ncccc1Cl [Cpd 15]	<300	< 300	–
Ryanodine [reference compound]	–	–	Calcium Release (P. americana) [1]: Antagonist; Calcium Release (D. melanogaster) [3]: Antagonist; Radioligand Displacement (P. americana) [4]: Inactive
Cc1cc(Br)cc(C(=O)NCC(C)C)c1NC(=O)c1cc(C(F)(F)F)nn1-c1ccccc1Cl [Cpd 3]	–	< 300	–
N.N.N.N.N.N.N.N.N.N.N.N.N.N.[Cl-].[Cl-].[Cl-].[Cl-].[Cl-].[Cl-].[O-2].[O-2].[Ru+3].[Ru+3].[Ru+4] [Ruthenium Red, reference compound]	–	–	Calcium Release (P. americana) [1]: Inactive; Calcium Release (D. melanogaster) [3]: Antagonist; Radioligand Displacement (P. americana) [4]: Displacer
Cc1cc(Cl)cc(C(=O)NC(C)C)c1NC(=O)c1cc(Br)nn1-c1ncccc1Cl [Cpd 13]	–	< 300	–
COc1cccc2c1C(=O)c1c(O)c3c(c(O)c1C2=O)C[C@@](O)(C(=O)CO)C[C@@H]3O[C@H]1C[C@H](N)[C@H](O)[C@H](C)O1.Cl [Doxorubicin, reference compound]	–	–	Calcium Release (P. americana) [1]: Inactive
CCNC(=O)c1cc(Br)cc(Br)c1NC(=O)c1cc(C(F)(F)F)nn1-c1ncccc1Cl [Cpd 18]	–	< 300	–
Cc1cc(Cl)cc(C(=O)NC(C)C)c1NC(=O)c1cc(C(F)(F)F)nn1-c1ncccc1Cl [Cpd 10]	<300	< 300	–
[3H]c1cc(C)c(NC(=O)c2cc(C(F)(F)F)nn2-c2ccccc2F)c(C(=O)NC(C)C)c1 [Cpd 1, 1-(2-Fluorophenyl)-N-[2-methyl-4-tritio-6-[[(1-methylethyl)amino]carbonyl]phenyl]-3-(trifluoromethyl)-1H-pyrazole-5-carboxamide]	–	< 300	Calcium Release Threshold (nM) D. melanogaster [3]: <300 nM
Oc1c(Br)cc2[nH]c3cnccc3c2c1Br [Bromoeudistomin D, reference compound]	–	–	Calcium Release (P. americana) [1]: Agonist
Cc1cccc(C(=O)NC(C)C)c1NC(=O)c1cc(Cl)nn1-c1ncccc1Cl [Cpd 8]	<300	< 300	–
